pIC50: −log10 of the molar value. Where a name gives a salt, the structure may show the parent alone.
Columns and labels:
human TDO2 [1] = target: T1, human TDO2 (Homo sapiens (Human), UniProt P48775); experiment: Cellular assay for TDO2 activity, hTDO2-overexpressing P815 cells; format: cell-based; details: murine mastocytoma P815 cells overexpressing hTDO2, overnight incubation, kynurenine in supernatant
Method: The compounds of Formula I inhibit the activity of human TDO2 in cells.
The assay (adapted from Pilotte L et al., Proc Natl Acad Sci USA, 2012, 109(7), 2497-502) was performed in 96-well flat bottom plates seeded with murine mastocytoma P815 cells overexpressing hTDO2 (prepared as described in Pilotte et al., PNAS, 2012, 109(7), 2497-2502), at a concentration of 5×10^4 cells/well in a final volume of 200 μL. To determine TDO or IDO activity, the cells were incubated overnight at 37° C. at 5% CO2 in IMDM (Invitrogen) supplemented with 2% FBS and 2% penicillin/streptomycin in the presence of the compounds of the present invention, at different concentrations. The cells may be obtained from the American Type Cuylture Collecion [ATCC® TIB-64™ or commercially, e.g., from Sigma-Aldrich or Life Technologies.]
(§1) The plates were then centrifuged 5 min at 1000 rpm, and 100 μL of the supernatant were collected in a conical plate, 30 uL of TCA 30% were added and a further centrifugated at 3000×g for 10 minutes. 100 μL of the supernatant were collected in a flat bottomed plate and 100 μL of 2% (w/v) 4-(dimethylamino)-benzaldehyde in acetic acid and incubated for 5 min at room temperature. Kynurenine concentrations were determined by measuring the absorbance at 480 nm. A standard curve was made with pure kynurenine. The TDO activity was measured as described above using ten serial concentrations of the compounds of the present invention. Data were fitted using the Prism™ software (GraphPad Software, Inc.) using standard software configurations.

human TDO2 [2] = target: T1, human TDO2; experiment: Cellular assay for TDO2 activity, A172 cells naturally expressing hTDO2; format: cell-based; details: human glioblastoma A172 cells, overnight incubation, kynurenine in supernatant
Method: A172 is a cell line derived from human brain glioblastoma cells.
To determine TDO, the cells were incubated overnight at 37° C. at 5% CO2 in IMDM (Invitrogen) supplemented with 2% FBS and 2% penicillin/streptomycin in the presence of the compounds of the present invention, at different concentrations.
as §1

human TDO2 [3] = target: T1, human TDO2; experiment: Assay for TDO2 enzymatic activity determination; format: biochemical; details: human recombinant TDO2, L-Trp 1 mM, kynurenine absorbance at 480 nm
Method: The compounds of formula I inhibit the enzymatic activity of human TDO2.
To measure the TDO2 activity, the procedure described in Dolusic et al. J. Med. Chem.; 2011, 54, […] was adapted: the reaction mixture contained (final concentrations) potassium phosphate buffer (50 mM, pH 7.5), ascorbic acid (0.25 M), methylene blue (0.125 μM), catalase (40 units/mL, from bovine liver, Sigma), and human recombinant TDO2 enzyme (prepared as described in Dolusic et al. J. Med. Chem.; 2011, 54, 5320-5334; 0.9 μg) without or with the compounds of the present invention at the indicated concentrations (total volume 112.5 μL). The reaction was initiated by the addition of 37.5 μL of L-Trp (final concentration 1 mM) at room temperature. The reaction was conducted at room temperature during one hour and stopped by the addition of 30 μL of 30% (w/v) trichloroacetic acid.
To convert N-formylkynurenine into kynurenine, the reaction mixture was incubated at 65° C. for 30 min. Then 150 μL of the reaction mixture was mixed with 120 μL of 2.5% (w/v) 4-(dimethylamino)-benzaldehyde in acetic acid and incubated for 5 min at room temperature. Kynurenine concentrations were determined by measuring the absorbance at 480 nm. A standard curve was made with pure kynurenine. The TDO activity was measured as described above using ten serial concentrations of the compounds of the present invention. Data were fitted using the Prism™ software (GraphPad Software, Inc.) using standard software configurations.

T1 sequence (P48775 whole entry): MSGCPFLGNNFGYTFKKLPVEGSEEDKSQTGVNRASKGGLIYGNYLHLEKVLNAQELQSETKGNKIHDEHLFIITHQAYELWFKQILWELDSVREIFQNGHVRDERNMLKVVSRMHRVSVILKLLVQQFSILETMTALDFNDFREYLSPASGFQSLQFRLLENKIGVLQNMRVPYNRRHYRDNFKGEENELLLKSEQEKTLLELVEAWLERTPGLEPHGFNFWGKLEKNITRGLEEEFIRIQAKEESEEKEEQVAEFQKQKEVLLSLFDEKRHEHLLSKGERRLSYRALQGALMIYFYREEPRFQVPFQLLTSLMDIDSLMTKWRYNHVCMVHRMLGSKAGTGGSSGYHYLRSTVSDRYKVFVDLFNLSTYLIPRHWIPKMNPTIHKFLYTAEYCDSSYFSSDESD

Row | SMILES | pIC50 (human TDO2 [1]) | pIC50 (human TDO2 [2]) | pIC50 (human TDO2 [3])
1 | O=C(Nc1ccc(-c2c[nH]c3cc(F)ccc23)cn1)C1CC1 [Example 52, N-(5-(6-fluoro-1H-indol-3-yl)pyridin-2-yl)cyclopropanecarboxamide] | 6.92 | – | –
2 | NCCS(=O)(=O)NC1CCN(c2ccc(-c3c[nH]c4cc(F)ccc34)cn2)CC1 [Example 55, 2-amino-N-(1-(5-(6-fluoro-1H-indol-3-yl)pyridin-2-yl)piperidin-4-yl)ethanesulfonamide] | 6.54 | 6.00 | –
3 | CS(=O)(=O)NCCNc1ccc(-c2c[nH]c3cc(F)ccc23)cn1 [Example 26, N-(2-(5-(6-fluoro-1H-indol-3-yl)pyridin-2-ylamino)ethyl)methanesulfonamide hydrochloride] | – | – | 6.15
4 | Fc1ccc2c(-c3ccc(OC4CCNCC4)nc3)c[nH]c2c1 [Example 2, 6-fluoro-3-(6-(piperidin-4-yloxy)pyridin-3-yl)-1H-indole] | – | – | 6.25
5 | CCN1CCC(Nc2ccc(-c3c[nH]c4cc(F)ccc34)cn2)CC1 [Example 18, N-(1-ethylpiperidin-4-yl)-5-(6-fluoro-1H-indol-3-yl)pyridin-2-amine] | – | – | 5.32
6 | O=c1ccc(-c2c[nH]c3cc(F)ccc23)c[nH]1 [Example 69, 5-(6-fluoro-1H-indol-3-yl)pyridin-2(1H)-one] | 6.59 | 6.43 | –
7 | CS(=O)(=O)N1CCC(Oc2ccc(-c3c[nH]c4cc(F)ccc34)cn2)CC1 [Example 6, 6-fluoro-3-(6-(1-(methylsulfonyl)piperidin-4-yloxy)pyridin-3-yl)-1H-indole] | – | – | 5.89
8 | C[C@H](N)C(=O)Nc1ccc(-c2c[nH]c3cc(F)ccc23)cn1 [Example 37, (S)-2-amino-N-(5-(6-fluoro-1H-indol-3-yl)pyridin-2-yl)propanamide] | 6.35 | – | –
9 | CS(=O)(=O)N1CCC(Nc2ccc(-c3c[nH]c4cc(F)ccc34)cn2)CC1 [Example 19, 5-(6-fluoro-1H-indol-3-yl)-N-(1-(methylsulfonyl)piperidin-4-yl)pyridin-2-amine] | – | – | 6.19
10 | CC(=O)N(C)c1ccc(-c2c[nH]c3cc(F)ccc23)cn1 [Example 8, N-(5-(6-fluoro-1H-indol-3-yl)pyridin-2-yl)-N-methylacetamide] | 6.31 | – | –
11 | NS(=O)(=O)CCNc1ccc(-c2c[nH]c3cc(F)ccc23)cn1 [Example 29, 2-((5-(6-fluoro-1H-indol-3-yl)pyridin-2-yl)amino)ethanesulfonamide] | 6.62 | – | –
12 | Nc1ccc(-c2c[nH]c3cc(F)c(F)cc23)cn1 [Example 16, 5-(5,6-difluoro-1H-indol-3-yl)pyridin-2-amine] | – | – | 5.80
13 | CN(C)CCS(=O)(=O)NC1CCN(c2ccc(-c3c[nH]c4cc(F)ccc34)cn2)CC1 [Example 56, 2-(dimethylamino)-N-(1-(5-(6-fluoro-1H-indol-3-yl)pyridin-2-yl)piperidin-4-yl)ethanesulfonamide] | 6.62 | 6.19 | –
14 | CN1CCC(Oc2ccc(-c3c[nH]c4cc(F)ccc34)cn2)CC1 [Example 3, 6-fluoro-3-(6-(1-methylpiperidin-4-yloxy)pyridin-3-yl)-1H-indole] | – | – | 5.92
15 | NS(=O)(=O)CCCNc1ccc(-c2c[nH]c3cc(F)ccc23)cn1 [Example 23, 3-((5-(6-fluoro-1H-indol-3-yl)pyridin-2-yl)amino)propane-1-sulfonamide] | 6.37 | 6.31 | –
16 | CS(=O)(=O)NC1CCN(c2ccc(-c3c[nH]c4cc(Cl)ccc34)cn2)CC1 [Example 72, N-(1-(5-(6-chloro-1H-indol-3-yl)pyridin-2-yl)piperidin-4-yl)methanesulfonamide] | – | 5.33 | –
17 | CC(=O)NCCNS(=O)(=O)c1ccc(-c2c[nH]c3cc(F)ccc23)cn1 [Example 92, N-(2-(5-(6-fluoro-1H-indol-3-yl)pyridine-2-sulfonamido)ethyl)acetamide] | – | 6.48 | –

Row | SMILES | pIC50 (human TDO2 [1]) | pIC50 (human TDO2 [2]) | pIC50 (human TDO2 [3])
18 | CC(=O)NCCNc1ccc(-c2c[nH]c3cc(F)ccc23)cn1 [Example 50, N-(2-((5-(6-fluoro-1H-indol-3-yl)pyridin-2-yl)amino)ethyl)acetamide] | 6.00 | – | –
19 | O=C(Nc1ccc(-c2c[nH]c3cc(F)ccc23)cn1)C1CCNCC1 [Example 35, N-(5-(6-fluoro-1H-indol-3-yl)pyridin-2-yl)piperidine-4-carboxamide] | 6.60 | 6.28 | –
20 | O=c1[nH]c2ncc(-c3c[nH]c4cc(F)ccc34)cc2o1 [Example 71, 6-(6-fluoro-1H-indol-3-yl)oxazolo[4,5-b]pyridin-2(3H)-one] | – | 5.85 | –
21 | CN(c1ccc(-c2c[nH]c3cc(F)ccc23)cn1)S(C)(=O)=O [Example 54, N-(5-(6-fluoro-1H-indol-3-yl)pyridin-2-yl)-N-methylmethanesulfonamide] | 6.80 | 6.38 | –
22 | N#Cc1ccc2[nH]cc(-c3ccc(S(=O)(=O)N4CCNCC4)nc3)c2c1 [Example 97, 3-(6-(piperazin-1-ylsulfonyl)pyridin-3-yl)-1H-indole-5-carbonitrile] | – | 5.62 | –
23 | Cn1cc(-c2c[nH]c3cc(F)ccc23)ccc1=O [Example 68, 5-(6-fluoro-1H-indol-3-yl)-1-methylpyridin-2(1H)-one] | – | 6.32 | –
24 | NCC(=O)Nc1ccc(-c2c[nH]c3cc(F)ccc23)cn1 [Example 39, 2-amino-N-(5-(6-fluoro-1H-indol-3-yl)pyridin-2-yl)acetamide] | 6.46 | – | –
25 | O=S(=O)(c1ccc(-c2c[nH]c3cc(F)ccc23)cn1)N1CCNCC1 [Example 87, 6-fluoro-3-(6-(piperazin-1-ylsulfonyl)pyridin-3-yl)-1H-indole] | – | 6.64 | –
26 | O=C(O)Cn1c(=O)[nH]c2cc(-c3c[nH]c4cc(F)ccc34)cnc21 [Example 85, 2-(6-(6-fluoro-1H-indol-3-yl)-2-oxo-1H-imidazo[4,5-b]pyridin-3(2H)-yl)acetic acid] | – | 5.64 | –
27 | CS(=O)(=O)N1CCC(C(=O)Nc2ccc(-c3c[nH]c4cc(F)ccc34)cn2)CC1 [Example 61, N-(5-(6-fluoro-1H-indol-3-yl)pyridin-2-yl)-1-(methylsulfonyl)piperidine-4-carboxamide] | 6.77 | 6.00 | –
28 | NCC(=O)NCCNc1ccc(-c2c[nH]c3cc(F)ccc23)cn1 [Example 51, 2-amino-N-(2-((5-(6-fluoro-1H-indol-3-yl)pyridin-2-yl)amino)ethyl)acetamide] | 6.07 | – | –
29 | CC(=O)NCCCNc1ccc(-c2c[nH]c3cc(F)ccc23)cn1 [Example 20, N-(3-(5-(6-fluoro-1H-indol-3-yl)pyridin-2-ylamino)propyl)acetamide] | – | – | 6.06
30 | [O-][n+]1cccc(-c2c[nH]c3cc(F)ccc23)c1 [Example 49, 3-(6-fluoro-1H-indol-3-yl)pyridine 1-oxide] | – | – | 4.96
31 | Cc1ccc2c(-c3ccc(S(=O)(=O)N4CCNCC4)nc3)c[nH]c2c1 [Example 98, 6-methyl-3-(6-(piperazin-1-ylsulfonyl)pyridin-3-yl)-1H-indole] | – | 5.85 | –
32 | CS(=O)(=O)NCCC(=O)Nc1ccc(-c2c[nH]c3cc(F)ccc23)cn1 [Example 64, N-(5-(6-fluoro-1H-indol-3-yl)pyridin-2-yl)-3-(methylsulfonamido)propanamide] | – | 6.06 | –
33 | Fc1ccc2c(-c3ccc(NC4CCOCC4)nc3)c[nH]c2c1 [Example 100, 5-(6-fluoro-1H-indol-3-yl)-N-(tetrahydro-2H-pyran-4-yl)pyridin-2-amine] | – | 6.21 | –
34 | NC(=O)Nc1ccc(-c2c[nH]c3cc(F)ccc23)cn1 [Example 63, 1-(5-(6-fluoro-1H-indol-3-yl)pyridin-2-yl)urea] | – | 6.44 | –

— US9758505B2, “3-(indol-3-yl)-pyridine derivatives, pharmaceutical compositions and methods for use” (ITEOS THERAPEUTICS, priority 2014, dated 2017)
